In the SangsterLogP compilation:

| Compound | logP |
| --- | --- |
| O=C(O)CCCCCON=C(c1ccccc1)c1cnccn1 | 0.23 |
| O=C(O)CCCCCO/N=C(/c1ccccc1)c1ccnnc1 | 0.1 |
| O=C(O)CCCO/N=C(\c1ccccc1)c1ccnnc1 | -0.4 |
| O=C(O)CCCO/N=C(/c1ccccc1)c1cnccn1 | -0.53 |

Now from value to compound:

| logP | Compound |
| --- | --- |
| 0 | O=C(O)CCCCO/N=C(/c1ccccc1)c1cccnn1 |
| -0.33 | O=C(O)CCCCO/N=C(/c1ccccc1)c1ccnnc1 |
| -0.01 | O=C(O)CCCCCO/N=C(/c1ccccc1)c1cccnn1 |
| -0.23 | O=C(O)CCCCO/N=C(/c1ccccc1)c1cnccn1 |
| -0.27 | O=C(O)CCCO/N=C(/c1ccccc1)c1cccnn1 |
